Laboratory results from publication PMC5429769, “Rational development of Stafib-2: a selective, nanomolar inhibitor of the transcription factor STAT5b” (Scientific Reports, 2017).
Positions count from the first letter of the chain named.

Legend:
Type in all cases: binding
[1] = target: T1, STAT5a SH2 domain (Homo sapiens, UniProt P42229); assay: Fluorescence polarization assay, STAT5a SH2 domain; conditions: mean ± s.d.
T1 sequence (P42229 1-794): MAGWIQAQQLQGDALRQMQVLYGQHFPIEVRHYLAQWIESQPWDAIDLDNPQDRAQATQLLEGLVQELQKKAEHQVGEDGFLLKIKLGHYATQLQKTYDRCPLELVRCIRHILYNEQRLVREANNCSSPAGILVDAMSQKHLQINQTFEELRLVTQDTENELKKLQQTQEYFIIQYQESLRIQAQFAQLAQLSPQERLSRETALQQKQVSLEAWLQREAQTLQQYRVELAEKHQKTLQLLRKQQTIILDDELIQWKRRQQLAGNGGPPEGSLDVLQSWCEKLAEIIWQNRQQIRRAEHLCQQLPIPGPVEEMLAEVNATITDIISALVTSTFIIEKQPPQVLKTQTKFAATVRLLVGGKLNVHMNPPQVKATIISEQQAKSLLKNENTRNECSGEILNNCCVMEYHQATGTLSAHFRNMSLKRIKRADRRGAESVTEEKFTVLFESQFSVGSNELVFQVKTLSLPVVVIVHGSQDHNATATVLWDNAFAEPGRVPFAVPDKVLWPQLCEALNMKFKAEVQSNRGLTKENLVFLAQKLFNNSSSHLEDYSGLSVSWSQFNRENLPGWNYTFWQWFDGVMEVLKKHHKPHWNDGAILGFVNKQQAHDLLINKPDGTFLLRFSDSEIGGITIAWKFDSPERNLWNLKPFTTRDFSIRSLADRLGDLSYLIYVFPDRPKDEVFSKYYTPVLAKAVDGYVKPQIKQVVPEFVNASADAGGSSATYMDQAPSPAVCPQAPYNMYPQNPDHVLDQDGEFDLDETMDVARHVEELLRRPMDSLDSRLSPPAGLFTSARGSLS

[2] = target: T2, STAT5b Phe633Ala, Tyr665Ala (Homo sapiens, UniProt P51692, F633A/Y665A); assay: Isothermal titration calorimetry, STAT5b Phe633Ala, Tyr665Ala double mutant; conditions: ITC, 25 °C, n = 3
T2 sequence (P51692 1-787 F633A/Y665A): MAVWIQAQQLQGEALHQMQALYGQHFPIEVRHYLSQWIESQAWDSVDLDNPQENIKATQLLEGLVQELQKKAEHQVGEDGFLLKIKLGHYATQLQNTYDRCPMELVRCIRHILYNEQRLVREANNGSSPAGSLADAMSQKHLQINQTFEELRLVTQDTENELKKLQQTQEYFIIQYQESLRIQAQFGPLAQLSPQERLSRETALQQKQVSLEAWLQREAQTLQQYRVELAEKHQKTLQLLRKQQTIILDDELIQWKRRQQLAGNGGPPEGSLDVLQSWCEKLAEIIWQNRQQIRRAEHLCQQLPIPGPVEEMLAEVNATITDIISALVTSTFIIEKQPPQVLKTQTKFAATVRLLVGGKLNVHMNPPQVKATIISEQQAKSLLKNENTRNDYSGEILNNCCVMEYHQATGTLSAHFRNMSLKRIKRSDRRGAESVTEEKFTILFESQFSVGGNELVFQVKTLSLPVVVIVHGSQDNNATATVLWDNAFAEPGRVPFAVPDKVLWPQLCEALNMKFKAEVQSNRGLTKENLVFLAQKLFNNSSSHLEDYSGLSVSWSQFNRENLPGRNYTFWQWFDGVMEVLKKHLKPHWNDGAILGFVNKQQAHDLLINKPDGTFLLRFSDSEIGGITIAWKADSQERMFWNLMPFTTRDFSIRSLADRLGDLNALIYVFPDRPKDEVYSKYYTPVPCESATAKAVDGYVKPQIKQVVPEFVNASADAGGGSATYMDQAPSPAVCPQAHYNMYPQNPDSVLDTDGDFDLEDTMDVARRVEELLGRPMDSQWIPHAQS

[3] = target: T3, STAT5b SH2 domain (Homo sapiens, UniProt P51692); assay: Fluorescence polarization assay, STAT5b SH2 domain
T3 sequence (P51692 1-787): T2 sequence (P51692 1-787 F633A/Y665A) with A633F, A665Y

O=C(COc1ccc(C(=O)Nc2ccc(Oc3ccccc3)cc2)cc1)NCc1ccc(OP(=O)(O)O)c(OP(=O)(O)O)c1 [compound 4, 4-((2-(4-((4-phenoxyphenyl)carbamoyl)phenoxy)acetamido)methyl)-1,2-phenylene bis(dihydrogen phosphate)]
Ki ([1]; converted from IC50 using the published equation, n = 3): 1300 ± 100 nM
IC50 ([1]; fluorescence polarization, three independent experiments): 2700 ± 200 nM
Kd [2]: 3800 ± 1700 nM
ΔH [2]: -5.1 ± 0.5 kcal/mol
−TΔS [2]: -2.4 ± 0.3 kcal/mol
fold reduced Ki value relative to 2 ([3]; STAT5b Ki): 5 fold
fold reduction in Ki value relative to 3 ([3]; STAT5b Ki): more than 10 fold
Ki ([3]; abstract, rounded): 9 nM
Ki ([3]; converted from IC50 using the published equation, mean ± s.d., n = 3): 8.8 ± 0.3 nM
IC50 ([3]; fluorescence polarization, mean ± s.d., three independent experiments): 82 ± 3 nM
